Bridge positions count the residues as written; N and C are the ends. Square brackets hold non-standard residues; d marks the D form. Peptide text beside a SMILES is read from it. NMeL = CN[C@@H](CC(C)C)C(=O)O; Phg = N[C@H](C(=O)O)c1ccccc1; NMeV = CN[C@H](C(=O)O)C(C)C; Aib = CC(C)(N)C(=O)O; Sar = CNCC(=O)O
The compounds below were run against ACA-6501 (assay: Competitive binding peptide ACA ELISA, cardiolipin/β2-GPI-coated plates). Conditions: Optimization of Peptide 3G3; inf = no 50% inhibition.
Design: species or system human
Method: A variation of this assay uses microtitration plates coated with human β2-glycoprotein I/cardiolipin (β2-GPI/CL) instead of tetravalent peptide and tests the ability of monomeric peptides to block the binding of aPL antibody to the epitope(s) on β2-GPI/CL. In this assay, IgG-depleted human serum at an optimized concentration is used as a source of β2-GPI. The monomeric peptides at several concentrations are incubated with an optimized concentration of aPL antibody in a manner analogous to the assay which employs tetravalent peptide as a plate substrate. Following the incubation of aPL/peptide in (β2-GPI/CL) plates, antibody binding and the peptide concentration required for 50% inhibition is determined at half-maximal absorbance as in the tetravalent assay.
Peptide sequences for all five peptides immediately follow the table. All were tested using the competitive binding peptide ACA ELISA using CL/β2-GPI plates as described herein.
(B) Immulon I® 96-well, flat-bottom, polystyrene microtitration plates (Dynatech Laboratories, Inc., Chantilly, Va.) were coated with 30 μL/well of cardiolipin (CL, 50 μg; Sigma Chemical Co., St. Louis, Mo.) in ethanol. Two control wells received 30 μL ethanol only. After overnight evaporation at 4° C., each well was blocked with 200 μL of 5% (w/v) fish gelatin in PBS for 2 hours at RT.
During this incubation, variable amounts of each of six peptides were mixed with 22 μL ACA-6501 serum diluted with 3% fish gelatin in 1:1 TBS/PBS (final dilution of 1:400) in a final volume of 220 μL using Eppendorf microcentrifuge tubes. Specifically, in tube #1 were mixed 181.3 μL of 3% fish gelatin in TBS-PBS, 16.7 μL of peptide stock solution plus 22 μL of ACA-6501 serum diluted 40 times in 3% fish gelatin/TBS-PBS. Stock solutions ranged from 450-800 μg/mL for peptides #951 (diserine non-cyclized negative control), #952 (a lot of LJP 690), and thioethers CCTE-3G3, CHTE-3G3, HCTE-3G3 and HHTE-3G3. To tube #2 the following were added: 148 μL fish gelatin/TBS-PBS, […] of peptide stock solution, plus 22 μL of 40 times diluted ACA-6501 serum. Tube #3 contained 48 μL fish gelatin/TBS-PBS, […] of peptide stock solution, plus 22 μL of 40 times diluted ACA-6501 serum. The control tube #4 received 396 μL fish gelatin/TBS-PBS and 44 μL of 40 times diluted ACA-6501 serum (no peptide). Each of the tubes incubated for approximately 1 hour at RT.
The CL/β2-GPI microtitration plate was washed 5 times with TBS and 100 μL aliquots in duplicate from Eppendorf tubes #1, 2, 3, and 4 containing the antibody-peptide (or no peptide mixtures) were added to the wells. A volume of 100 μL from tube #4 was added to the duplicate control wells containing no cardiolipin. The microtitration plate was incubated for 1 hour at RT with agitation at 40 rpm in an orbital shaker (American Scientific, Rotator V), washed 5 times with TBS and then 100 μL of 1:1000 goat anti-human IgG alkaline phosphatase conjugate (Zymed, Cat No. 62-8422) in 0.5% (w/v) BSA-TBS was added. Following incubation for 1 hour at RT, the microtitration plate was again washed 5 times with TBS and the colorimetric enzyme detection developed by adding 100 μL of PMPP solution (7.8 g phenolphthalein monophosphate plus 69.5 g of 2-amino-2-methyl-1-propanol in 100 mL water stock solution diluted 1:26 with water). After 21 minutes, the reaction was stopped by adding 50 μL of 0.2 M Na2HPO4 (Mallinckrodt) to each well. Absorbance at 550 nm was read in a microplate reader (Bio-Tek Instruments, Model EL 311). The amount of peptide that inhibited ACA-6501 binding by 50%, the IC50, was calculated from the graph at the intersection of half-maximal absorbance with amount of peptide added.

SMILES	with ACA 6501 150 ug/mL [µg/mL]
CC(C)C[C@@H]1NC(=O)[C@H](c2ccccc2)NC(=O)CNC(=O)[C@H](CC(C)C)NC(=O)[C@H](C(C)C)NC(=O)CNC(=O)[C@H](CC(C)C)NC(=O)[C@@H](N)CSSC[C@@H](C(=O)O)NC1=O [C L G V L Gp G L C] (H-CLGVLG[Phg]LC-OH; disulfide 1-9)	230
CC(C)C[C@@H]1NC(=O)[C@H](CCCCN)NC(=O)[C@@H]2CCCN2C(=O)[C@H](CC(C)C)NC(=O)[C@H](C(C)C)NC(=O)CNC(=O)[C@H](CC(C)C)NC(=O)[C@@H](N)CSSC[C@@H](C(=O)O)NC1=O [C L G V L P K L C] (H-CLGVLPKLC-OH; disulfide 1-9)	350
CC(C)C[C@@H]1NC(=O)[C@H](CCCCN)NC(=O)C(C)(C)NC(=O)[C@H](CC(C)C)NC(=O)[C@H](C(C)C)NC(=O)CNC(=O)[C@H](CC(C)C)NC(=O)[C@@H](N)CSSC[C@@H](C(=O)O)NC1=O [C L G V L aiB K L C] (H-CLGVL[Aib]KLC-OH; disulfide 1-9)	110
CC(C)C[C@@H]1NC(=O)[C@H](CCCCN)NC(=O)[C@@H](C)NC(=O)[C@H](CC(C)C)NC(=O)[C@H](C(C)C)NC(=O)CNC(=O)[C@H](CC(C)C)NC(=O)[C@@H](N)CSSC[C@@H](C(=O)O)NC1=O [C L G V L dA K L C] (H-CLGVL[dA]KLC-OH; disulfide 1-9)	140
CC(C)C[C@@H]1NC(=O)[C@H](CCCCN)NC(=O)CN(C)C(=O)[C@H](CC(C)C)NC(=O)[C@H](C(C)C)NC(=O)CNC(=O)[C@H](CC(C)C)NC(=O)[C@@H](N)CSSC[C@@H](C(=O)O)NC1=O [C L G V L nG K L C] (H-CLGVL[Sar]KLC-OH; disulfide 1-9)	550
CC(C)C[C@@H]1NC(=O)[C@H](CCCCN)NC(=O)[C@H](c2ccccc2)NC(=O)[C@H](CC(C)C)NC(=O)[C@H](C(C)C)NC(=O)CNC(=O)[C@H](CC(C)C)NC(=O)[C@@H](N)CSSC[C@@H](C(=O)O)NC1=O [C L G V Lp G K L C] (H-CLGVL[Phg]KLC-OH; disulfide 1-9)	30
CC(C)C[C@@H]1NC(=O)[C@H](CCCCN)NC(=O)CNC(=O)[C@@H](CC(C)C)NC(=O)[C@H](C(C)C)NC(=O)CNC(=O)[C@H](CC(C)C)NC(=O)[C@@H](N)CSSC[C@@H](C(=O)O)NC1=O [C L G V dL G K L C] (H-CLGV[dL]GKLC-OH; disulfide 1-9)	230
CC(C)C[C@@H]1NC(=O)[C@H](CCCCN)NC(=O)CNC(=O)[C@H](CC(C)C)N(C)C(=O)[C@H](C(C)C)NC(=O)CNC(=O)[C@H](CC(C)C)NC(=O)[C@@H](N)CSSC[C@@H](C(=O)O)NC1=O [C L G V nL G K L C] (H-CLGV[NMeL]GKLC-OH; disulfide 1-9)	180
CC(C)C[C@@H]1NC(=O)[C@H](CCCCN)NC(=O)CNC(=O)[C@H](c2ccccc2)NC(=O)[C@H](C(C)C)NC(=O)CNC(=O)[C@H](CC(C)C)NC(=O)[C@@H](N)CSSC[C@@H](C(=O)O)NC1=O [C L G Vp G G K L C] (H-CLGV[Phg]GKLC-OH; disulfide 1-9)	35
CC(C)C[C@@H]1NC(=O)[C@H](CCCCN)NC(=O)CNC(=O)[C@H](CC(C)C)NC(=O)C(C)(C)NC(=O)CNC(=O)[C@H](CC(C)C)NC(=O)[C@@H](N)CSSC[C@@H](C(=O)O)NC1=O [C L G aiB L G K L C] (H-CLG[Aib]LGKLC-OH; disulfide 1-9)	110
CC(C)C[C@@H]1NC(=O)[C@H](CCCCN)NC(=O)CNC(=O)[C@H](CC(C)C)NC(=O)[C@@H](C(C)C)NC(=O)CNC(=O)[C@H](CC(C)C)NC(=O)[C@@H](N)CSSC[C@@H](C(=O)O)NC1=O [C L G dV L G K L C] (H-CLG[dV]LGKLC-OH; disulfide 1-9)	260
CC(C)C[C@@H]1NC(=O)[C@H](CCCCN)NC(=O)CNC(=O)[C@H](CC(C)C)NC(=O)[C@H](C(C)C)N(C)C(=O)CNC(=O)[C@H](CC(C)C)NC(=O)[C@@H](N)CSSC[C@@H](C(=O)O)NC1=O [C L G nV L G K L C] (H-CLG[NMeV]LGKLC-OH; disulfide 1-9)	220

From patent US20040009904A1, “APL immunoreactive peptides, conjugates thereof and methods of treatment for aPL antibody-mediated pathologies” (priority 1995, published 2004)
